Reference: patent publication US12612389B2, “Benzofuran-based N-acylhydrazone derivative and pharmaceutical composition comprising same” (KOREA RESEARCH INSTITUTE OF BIOSCIENCE AND BIOTECHNOLOGY, priority 2019, dated 2026)

Tests used:
786-O = experiment: Anti-proliferative activity in other cancer cell lines (MTT); type: cell-based; settings: Homo sapiens, 786-0, 96 h, Kidney, 4 days
Description: (§1) HeLa cells (American Type Culture Collection: ATCC, USA), a human cervical cancer cell line, were seeded in a 96-well plate at 3×10^3 cells/well, and the cells were then treated with compounds of Examples or Comparative Example according to the present invention and grown for 2 days. Then, MTT (3-(4,5-dimethylthiazol-2-yl)-2,5-diphenyltetrazolium bromide) reagent was added at 10 μL/well. After 2 hours, absorbance was measured at “OD 450” and statistical values were obtained using Prism™6 program. The data shown in Table below are mean values of results obtained by repeating the analysis twice.
(§2) Specifically, various cancer cell lines were cultured in a microtiter plate (1-3×10^3 cells/well), treated with the compound of Example 4 according to the present invention, and cultured for 4 days. Cytotoxicity was tested by MTT assay in the same manner as in Experimental Example 1-1, and IC50 was obtained by a log-dose response curve. The data shown in Table below are mean values of results obtained by repeating the analysis three times.

A172 = experiment: as above; type: cell-based; settings: Homo sapiens, A 172, 96 h, Brain, 4 days
Description: as §1, §2

A431 = experiment: as above; type: cell-based; settings: Homo sapiens, A-431, 96 h, Skin, 4 days
Description: as §1, §2

A549 = experiment: as above; type: cell-based; settings: Homo sapiens, 96 h, A549 (line stands under Liver), 4 days
Description: as §1, §2

CCRF-CEM = experiment: as above; type: cell-based; settings: Homo sapiens, 96 h, Peripheral blood, 4 days
Description: as §1, §2

Colo 205 = experiment: as above; type: cell-based; settings: Homo sapiens, 96 h, Colon, 4 days
Description: as §1, §2

HCC1954 = experiment: as above; type: cell-based; settings: Homo sapiens, 96 h, Breast, 4 days
Description: as §1, §2

HCT 116 = experiment: as above; type: cell-based; settings: Homo sapiens, 96 h, Colon, 4 days
Description: as §1, §2

HCT-15 = experiment: as above; type: cell-based; settings: Homo sapiens, 96 h, Colon, 4 days
Description: as §1, §2

HeLa CCL2 = experiment: as above; type: cell-based; settings: Homo sapiens, 96 h, Cervix, 4 days
Description: as §1, §2

Hep3B = experiment: as above; type: cell-based; settings: Homo sapiens, 96 h, Liver, 4 days
Description: as §1, §2

K562 = experiment: as above; type: cell-based; settings: Homo sapiens, 96 h, Marrow (leukemia), 4 days
Description: as §1, §2

MDA-MB-468 = experiment: as above; type: cell-based; settings: Homo sapiens, 96 h, Breast, 4 days
Description: as §1, §2

MOLT4 = experiment: as above; type: cell-based; settings: Homo sapiens, MOLT-4, 96 h, Marrow (leukemia), 4 days
Description: as §1, §2

NCI-H125 = experiment: as above; type: cell-based; settings: Homo sapiens, 96 h, Lung, 4 days
Description: as §1, §2

NCI-H1299 = experiment: as above; type: cell-based; settings: Homo sapiens, 96 h, Lung, 4 days
Description: as §1, §2

NCI-H226 = experiment: as above; type: cell-based; settings: Homo sapiens, 96 h, Lung, 4 days
Description: as §1, §2

NCI-H460 = experiment: as above; type: cell-based; settings: Homo sapiens, 96 h, Lung, 4 days
Description: as §1, §2

NCI-H522 = experiment: as above; type: cell-based; settings: Homo sapiens, 96 h, Lung, 4 days
Description: as §1, §2

PC3 = experiment: as above; type: cell-based; settings: Homo sapiens, PC-3, 96 h, Prostate, 4 days
Description: as §1, §2

RPMI-8226 = experiment: as above; type: cell-based; settings: Homo sapiens, 96 h, Marrow (leukemia), 4 days
Description: as §1, §2

SK-MEL 5 = experiment: as above; type: cell-based; settings: Homo sapiens, 96 h, Skin, 4 days
Description: as §1, §2

SK-N-MC = experiment: as above; type: cell-based; settings: Homo sapiens, 96 h, Brain, 4 days
Description: as §1, §2

SNB75 = experiment: as above; type: cell-based; settings: Homo sapiens, SNB-75, 96 h, CNS, 4 days
Description: as §1, §2

SNU 484 = experiment: as above; type: cell-based; settings: 96 h, Stomach, 4 days
Description: as §1, §2

U-2-OS = experiment: as above; type: cell-based; settings: Homo sapiens, U2OS, 96 h, Bone, 4 days
Description: as §1, §2

U373MG = experiment: as above; type: cell-based; settings: Homo sapiens, U373 MG, 96 h, Brain, 4 days
Description: as §1, §2

HeLa CCL2 cells = experiment: Wound healing assay; type: cell-based, human; settings: up to 100 nM, FIGS. 6A and 6B
Description: HeLa CCL2 cells were cultured in 6 wells at 100%, wounded with a yellow tip, and treated with 50 nM and 100 nM of the compound of Example 4. In order to observe the effect of the drug, the degree of cell migration was compared and observed by recording the state of the cells before treatment as images, and comparing the cell state before drug treatment with the state of the cells at 24, 36, and 48 hours post the drug treatment. The concentration of the compound of Example 4 treated with the cells was determined by performing MTT assay.

Structure (SMILES): CCOCCn1c(Cl)c(/C=N/NC(=O)c2cc3cc(C)ccc3o2)c2ccccc21 [Example 4, (E)-N′-[(2-chloro-1-(2-ethoxyethyl)-1H-indol-3-yl]methylene}-5-methylbenzofuran-2-carbohydrazide]
- IC50 (786-O): 130 ± 50 nM
- IC50 (A172): 790 ± 90 nM
- IC50 (A431): 220 ± 17 nM
- IC50 (A549): 630 ± 120 nM
- IC50 (CCRF-CEM): 340 ± 20 nM
- IC50 (Colo 205): 360 ± 490 nM
- IC50 (HCC1954): 410 ± 50 nM
- IC50 (HCT 116): 450 ± 220 nM
- IC50 (HCT-15): 280 ± 70 nM
- IC50 (HeLa CCL2): 180 ± 4 nM
- IC50 (Hep3B): 190 ± 50 nM
- IC50 (K562): 470 ± 12 nM
- IC50 (MDA-MB-468): 690 ± 30 nM
- IC50 (MOLT4): 300 ± 10 nM
- IC50 (NCI-H125): 370 ± 200 nM
- IC50 (NCI-H1299): 560 ± 150 nM
- IC50 (NCI-H226): 420 ± 60 nM
- IC50 (NCI-H460): 500 ± 90 nM
- IC50 (NCI-H522): 370 ± 130 nM
- IC50 (PC3): 710 ± 180 nM
- IC50 (RPMI-8226): 520 ± 130 nM
- IC50 (SK-MEL 5): 460 ± 140 nM
- IC50 (SK-N-MC): 980 ± 110 nM
- IC50 (SNB75): 390 ± 30 nM
- IC50 (SNU 484): 350 ± 70 nM
- IC50 (U-2-OS): 420 ± 60 nM
- IC50 (U373MG): 360 ± 10 nM
- effect on cell growth (HeLa CCL2 cells): did not have a significant effect on cell growth
